Molecular target: T1, Aurora kinase A (Homo sapiens, UniProt O14965)
T1 sequence (O14965 whole entry): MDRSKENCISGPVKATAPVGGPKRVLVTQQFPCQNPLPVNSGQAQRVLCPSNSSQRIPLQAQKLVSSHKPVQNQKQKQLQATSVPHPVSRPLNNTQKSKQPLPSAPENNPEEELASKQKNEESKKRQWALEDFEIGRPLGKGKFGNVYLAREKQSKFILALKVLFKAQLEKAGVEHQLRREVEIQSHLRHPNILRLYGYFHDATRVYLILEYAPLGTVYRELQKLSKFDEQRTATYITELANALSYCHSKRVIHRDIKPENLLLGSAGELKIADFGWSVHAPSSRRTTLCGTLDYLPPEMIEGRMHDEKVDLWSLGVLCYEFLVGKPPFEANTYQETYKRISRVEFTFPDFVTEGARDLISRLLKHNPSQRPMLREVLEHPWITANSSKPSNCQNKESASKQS
Experiment: Inhibition of Aurora A

Row | SMILES | IC50
1 | Cc1cc(CN2CCN(c3c(Cl)cnc4nc(-c5ccc(OCCO)cc5)[nH]c34)CC2)no1 | 0.029 µM
2 | Cc1cc(CN2CCN(c3c(Br)cnc4[nH]c(-c5ccc(Cn6cccn6)cc5)nc34)CC2)no1 | 0.01 µM
3 | Cc1cc(CN2CCN(c3c(Cl)cnc4nc(-c5ccc(N6CCN(C)CC6)cc5)[nH]c34)CC2)no1 | 0.01 µM
4 | CC(c1ccncc1)N1CCN(c2c(Br)cnc3[nH]c(-c4ccc(N(C)C)cc4)nc23)CC1 (configuration not stated) | 0.055 µM
5 | CN(C)c1ccc(-c2nc3c(N4CCN(CC(=O)Nc5ccccc5)CC4)c(Br)cnc3[nH]2)cc1 | 0.277 µM
6 | COc1ccc(-c2nc3c(N4CCN(Cc5ccncc5)CC4)c(Br)cnc3[nH]2)cc1 | 0.009 µM
7 | COc1ccc(-c2nc3c(N4CCN(Cc5coc(C(C)C)n5)CC4)c(Br)cnc3[nH]2)cc1 | 0.081 µM

Continued by falling IC50, values first:

Row | IC50 | SMILES
8 | 4.4 µM | c1ccc(-c2ccc(-c3nc4cccnc4[nH]3)cc2)nc1
9 | 0.081 µM | O=C(CN1CCN(c2c(Br)cnc3[nH]cnc23)CC1)Nc1nccs1
10 | 0.014 µM | CC(=O)c1cccc(-c2ccc(-c3nc4ncc(Br)c(N5CCN(Cc6cc(C)on6)CC5)c4[nH]3)cc2)c1
11 | 0.01 µM | Cc1cc(CN2CCN(c3c(Br)cnc4[nH]c(-c5ccc(N6CCNCC6)cc5)nc34)CC2)no1
12 | 0.003 µM | Cc1cc(CN2CCN(c3c(Cl)cnc4nc(-c5ccc(Cn6cccn6)cc5)[nH]c34)CC2)no1
